According to paper PMC5218480 (PLoS ONE, 2017):

Test system: MV-4-11 cells
Test: Gene expression microarray analysis (Affymetrix PrimeView) and GSEA
Type: cell-based, human
Set-up: RFU PODN (11730768_x_at) / Fold change /veh PODN (11730768_x_at) / RFU LINC00158 (11744669_a_at) / Fold change /veh LINC00158 (11744669_a_at) / RFU DUSP10 (11751237_a_at) / Fold change /veh DUSP10 (11751237_a_at) / RFU ID3 (11757404_x_at) / Fold change /veh ID3 (11757404_x_at) / RFU PLEKHG5 (11737974_s_at) / Fold change /veh PLEKHG5 (11737974_s_at) / RFU LRRC4B (11730491_at) / Fold change /veh LRRC4B (11730491_at) / RFU GIMAP4 (11747438_a_at) / Fold change /veh GIMAP4 (11747438_a_at) / RFU KRT8 (11758183_x_at) / Fold change /veh KRT8 (11758183_x_at) / RFU CNN1 (11734310_a_at) / Fold change /veh CNN1 (11734310_a_at) / RFU VPS37D (11726825_at) / Fold change /veh VPS37D (11726825_at) / RFU C10orf10 (11716522_x_at) / Fold change /veh C10orf10 (11716522_x_at) / RFU KIR2DL2 /// KIR2DL4 /// KIR2DL5A /// KIR2DL5B /// KIR2DS1 /// KIR2DS2 /// KIR2DS3 /// KIR2DS4 /// KIR3DL3 /// KIR3DL3 /// KIR3DS1 (11738374_at) / Fold change /veh KIR2DL2 /// KIR2DL4 /// KIR2DL5A /// KIR2DL5B /// KIR2DS1 /// KIR2DS2 /// KIR2DS3 /// KIR2DS4 /// KIR3DL3 /// KIR3DL3 /// KIR3DS1 (11738374_at) / RFU C1QL1 (11718748_at) / Fold change /veh C1QL1 (11718748_at) / RFU TMPRSS4 (11747572_a_at) / Fold change /veh TMPRSS4 (11747572_a_at) / RFU HAMP (11756126_x_at) / Fold change /veh HAMP (11756126_x_at) / RFU RNFT2 (11725882_a_at) / Fold change /veh RNFT2 (11725882_a_at) / RFU NR4A2 (11747474_a_at) / Fold change /veh NR4A2 (11747474_a_at) / RFU ABCC12 (11746883_a_at) / Fold change /veh ABCC12 (11746883_a_at) / RFU TMEM136 (11760407_x_at) / Fold change /veh TMEM136 (11760407_x_at) / RFU CLDN22 /// WWC2 (11732394_at) / Fold change /veh CLDN22 /// WWC2 (11732394_at) / RFU HLA-DPB1 (11760878_x_at) / Fold change /veh HLA-DPB1 (11760878_x_at) / RFU SPINT1 (11716480_a_at) / Fold change /veh SPINT1 (11716480_a_at) / RFU GAP43 (11754022_s_at) / Fold change /veh GAP43 (11754022_s_at) / RFU A4GNT (11735810_at) / Fold change /veh A4GNT (11735810_at) / RFU PRB3 (11715151_x_at) / Fold change /veh PRB3 (11715151_x_at) / RFU TUBB4B (11761932_at) / Fold change /veh TUBB4B (11761932_at) / RFU CAPN14 (11732068_a_at) / Fold change /veh CAPN14 (11732068_a_at) / RFU TMCC2 (11721928_a_at) / Fold change /veh TMCC2 (11721928_a_at) / RFU IRGQ (11745062_a_at) / Fold change /veh IRGQ (11745062_a_at) / RFU FAM174B (11720279_a_at) / Fold change /veh FAM174B (11720279_a_at) / RFU TMPRSS4 (11748680_a_at) / Fold change /veh TMPRSS4 (11748680_a_at) / RFU FAM212B (11763350_a_at) / Fold change /veh FAM212B (11763350_a_at) / RFU PLEKHG5 (11743358_a_at) / Fold change /veh PLEKHG5 (11743358_a_at) / RFU ZSCAN30 (11745921_a_at) / Fold change /veh ZSCAN30 (11745921_a_at) / RFU CMKLR1 (11741424_a_at) / Fold change /veh CMKLR1 (11741424_a_at) / RFU LOC101060620 /// MAPK8IP1 (11723275_at) / Fold change /veh LOC101060620 /// MAPK8IP1 (11723275_at) / RFU SPTSSB (11747773_x_at) / Fold change /veh SPTSSB (11747773_x_at) / RFU PRSS12 (11739890_at) / Fold change /veh PRSS12 (11739890_at) / RFU BIN1 (11741810_x_at) / Fold change /veh BIN1 (11741810_x_at) / RFU WNT11 (11732464_a_at) / Fold change /veh WNT11 (11732464_a_at) / RFU C10orf10 (11716521_a_at) / Fold change /veh C10orf10 (11716521_a_at) / RFU C5orf56 (11738089_at) / Fold change /veh C5orf56 (11738089_at) / RFU CYB561 (11721691_x_at) / Fold change /veh CYB561 (11721691_x_at) / RFU ANKRD19P (11752326_a_at) / Fold change /veh ANKRD19P (11752326_a_at) / RFU OR2T12 /// OR2T33 /// OR2T8 (11738714_s_at) / Fold change /veh OR2T12 /// OR2T33 /// OR2T8 (11738714_s_at) / RFU VCAN (11748164_a_at) / Fold change /veh VCAN (11748164_a_at) / RFU JSRP1 (11732532_at) / Fold change /veh JSRP1 (11732532_at) / RFU KRTAP10-11 (11738290_x_at) / Fold change /veh KRTAP10-11 (11738290_x_at) / RFU MYO3A (11730013_a_at) / Fold change /veh MYO3A (11730013_a_at) / RFU EBF3 (11725865_a_at) / Fold change /veh EBF3 (11725865_a_at) / RFU CAMK2N1 (11719241_x_at) / Fold change /veh CAMK2N1 (11719241_x_at) / RFU C5orf56 (11738088_a_at) / Fold change /veh C5orf56 (11738088_a_at) / RFU OLFML3 (11715873_a_at) / Fold change /veh OLFML3 (11715873_a_at) / RFU LOC100653217 /// NTM (11731650_a_at) / Fold change /veh LOC100653217 /// NTM (11731650_a_at) / RFU MAPK11 (11762145_a_at) / Fold change /veh MAPK11 (11762145_a_at) / RFU FIZ1 (11724087_x_at) / Fold change /veh FIZ1 (11724087_x_at) / RFU OASL (11726364_x_at) / Fold change /veh OASL (11726364_x_at) / RFU SOX15 (11748057_x_at) / Fold change /veh SOX15 (11748057_x_at) / RFU CD79A (11719716_a_at) / Fold change /veh CD79A (11719716_a_at) / RFU HIST1H1D (11736915_at) / Fold change /veh HIST1H1D (11736915_at) / RFU CASKIN2 (11723855_a_at) / Fold change /veh CASKIN2 (11723855_a_at) / RFU LOC730098 (11760151_x_at) / Fold change /veh LOC730098 (11760151_x_at) / RFU OR4N2 (11742367_at) / Fold change /veh OR4N2 (11742367_at) / RFU PRRT2 (11749266_a_at) / Fold change /veh PRRT2 (11749266_a_at) / RFU SNX32 (11753110_a_at) / Fold change /veh SNX32 (11753110_a_at) / RFU CDHR5 (11726645_a_at) / Fold change /veh CDHR5 (11726645_a_at) / RFU RCAN1 (11760418_a_at) / Fold change /veh RCAN1 (11760418_a_at) / RFU FAM167A (11723789_a_at) / Fold change /veh FAM167A (11723789_a_at) / RFU FAM26E (11764081_at) / Fold change /veh FAM26E (11764081_at) / RFU ISYNA1 (11749810_s_at) / Fold change /veh ISYNA1 (11749810_s_at) / RFU ACY1 (11761880_at) / Fold change /veh ACY1 (11761880_at) / RFU 11764098_at / Fold change /veh 11764098_at / RFU SAMD14 (11745864_x_at) / Fold change /veh SAMD14 (11745864_x_at) / RFU NPB (11741838_a_at) / Fold change /veh NPB (11741838_a_at) / RFU TMPRSS6 (11731388_a_at) / Fold change /veh TMPRSS6 (11731388_a_at) / RFU KRTAP10-2 (11738614_at) / Fold change /veh KRTAP10-2 (11738614_at) / RFU ARHGAP8 /// PRR5-ARHGAP8 (11727945_x_at) / Fold change /veh ARHGAP8 /// PRR5-ARHGAP8 (11727945_x_at) / RFU KRTAP5-7 /// NADSYN1 (11734609_at) / Fold change /veh KRTAP5-7 /// NADSYN1 (11734609_at) / RFU RASL12 (11751679_a_at) / Fold change /veh RASL12 (11751679_a_at) / RFU CDKN2B (11736163_a_at) / Fold change /veh CDKN2B (11736163_a_at) / RFU PRF1 (11729649_at) / Fold change /veh PRF1 (11729649_at) / RFU, ZNF638 /// ZNF638-IT1 / Fold change vs veh, ZNF638 /// ZNF638-IT1 / RFU, PANK3 / Fold change vs veh, PANK3 / RFU, SH3YL1 / Fold change vs veh, SH3YL1 / RFU, ZEB2 / Fold change vs veh, ZEB2 / RFU, NRIP1 / Fold change vs veh, NRIP1 / RFU, PTTG1IP / Fold change vs veh, PTTG1IP / RFU, CAPN2 / Fold change vs veh, CAPN2 / RFU, MED14 / Fold change vs veh, MED14 / RFU, SNORA58 / Fold change vs veh, SNORA58 / RFU, C1orf63 / Fold change vs veh, C1orf63 / RFU, LRRFIP1 / Fold change vs veh, LRRFIP1 / RFU, NDUFAF7 / Fold change vs veh, NDUFAF7 / RFU, SLC12A2 / Fold change vs veh, SLC12A2 / RFU, IBTK / Fold change vs veh, IBTK / RFU, ESF1 / Fold change vs veh, ESF1 / Fold change vs veh, TMEM50B / RFU, TAOK1 / Fold change vs veh, TAOK1 / RFU, ACBD3 / Fold change vs veh, ACBD3 / RFU, TMA16 / Fold change vs veh, TMA16 / RFU, RWDD3 / Fold change vs veh, RWDD3 / RFU, BCAT1 / Fold change vs veh, BCAT1 / RFU, EDEM3 / Fold change vs veh, EDEM3 / RFU, TMEM33 / Fold change vs veh, TMEM33 / RFU, WDR75 / Fold change vs veh, WDR75 / RFU, AHCTF1 / Fold change vs veh, AHCTF1 / RFU, TFRC / Fold change vs veh, TFRC / RFU, ZDHHC17 / Fold change vs veh, ZDHHC17 / RFU, NOM1 / Fold change vs veh, NOM1 / RFU, ARL8B / Fold change vs veh, ARL8B / RFU, ZBTB11 / Fold change vs veh, ZBTB11 / RFU, TAMM41 / Fold change vs veh, TAMM41 / RFU, KIAA1704 /// LOC100996395 / Fold change vs veh, KIAA1704 /// LOC100996395 / RFU, ING1 / Fold change vs veh, ING1 / RFU, TRMT61B / Fold change vs veh, TRMT61B / RFU, FUBP3 / Fold change vs veh, FUBP3 / RFU, TP53 / Fold change vs veh, TP53 / RFU, TNKS2 / Fold change vs veh, TNKS2 / RFU, ZFP14 / Fold change vs veh, ZFP14 / RFU, ACTR2 / Fold change vs veh, ACTR2 / RFU, PPP3R1 / Fold change vs veh, PPP3R1 / RFU, PIK3R1 / Fold change vs veh, PIK3R1 / RFU, HNRNPA1 / Fold change vs veh, HNRNPA1 / RFU, RNF170 / Fold change vs veh, RNF170 / RFU, ZNF28 / Fold change vs veh, ZNF28 / RFU, RNGTT / Fold change vs veh, RNGTT / RFU, OGT / Fold change vs veh, OGT / RFU, BRD1 / Fold change vs veh, BRD1 / RFU, MARS / Fold change vs veh, MARS / RFU, ZNF655 / Fold change vs veh, ZNF655 / RFU, FAHD1 / Fold change vs veh, FAHD1 / RFU, BDP1 / Fold change vs veh, BDP1 / RFU, LRRCC1 / Fold change vs veh, LRRCC1 / RFU, ARID1A / Fold change vs veh, ARID1A / RFU, ZNF146 / Fold change vs veh, ZNF146 / RFU, ZNF330 / Fold change vs veh, ZNF330 / RFU, GPN3 / Fold change vs veh, GPN3 / RFU, C9orf123 / Fold change vs veh, C9orf123 / RFU, N4BP2L2 / Fold change vs veh, N4BP2L2 / RFU, ARFIP1 / Fold change vs veh, ARFIP1 / RFU, FAM179B / Fold change vs veh, FAM179B / RFU, BCL10 / Fold change vs veh, BCL10 / RFU, UHRF1BP1L / Fold change vs veh, UHRF1BP1L / RFU, BET1 / Fold change vs veh, BET1 / RFU, CNOT2 / Fold change vs veh, CNOT2 / RFU, ZNF268 / Fold change vs veh, ZNF268 / Fold change vs veh, ZNF507 / RFU, DGCR2 / Fold change vs veh, DGCR2 / RFU, WDSUB1 / Fold change vs veh, WDSUB1 / Fold change vs veh, HSP90B1 /// MIR3652 / RFU, ADSS / Fold change vs veh, ADSS / RFU, GK / Fold change vs veh, GK / RFU, ZNF148 / Fold change vs veh, ZNF148 / RFU, TAF9 / Fold change vs veh, TAF9 / RFU, SLC1A5 / Fold change vs veh, SLC1A5 / RFU, SLMO2 / Fold change vs veh, SLMO2 / RFU, ABCC4 / Fold change vs veh, ABCC4 / RFU, LOC101060439 /// RAP1B / Fold change vs veh, LOC101060439 /// RAP1B / RFU, RFX7 / Fold change vs veh, RFX7 / RFU, GTPBP10 / Fold change vs veh, GTPBP10 / RFU, CNEP1R1 / Fold change vs veh, CNEP1R1 / RFU, BIVM-ERCC5 /// ERCC5 / Fold change vs veh, BIVM-ERCC5 /// ERCC5 / RFU, ILF3 / Fold change vs veh, ILF3 / RFU 11762660_at / Fold change /veh 11762660_at / RFU VCAN (11757783_s_at) / Fold change /veh VCAN (11757783_s_at) / RFU DDX43 (11728927_at) / Fold change /veh DDX43 (11728927_at) / RFU KRT8 (11758188_x_at) / Fold change /veh KRT8 (11758188_x_at) / RFU NKD1 (11759106_at) / Fold change /veh NKD1 (11759106_at) / RFU SRD5A1 (11742802_a_at) / Fold change /veh SRD5A1 (11742802_a_at) / RFU TPSAB1 /// TPSB2 (11721975_s_at) / Fold change /veh TPSAB1 /// TPSB2 (11721975_s_at) / RFU GSTM3 (11746129_a_at) / Fold change /veh GSTM3 (11746129_a_at) / RFU IL23R (11737362_x_at) / Fold change /veh IL23R (11737362_x_at) / RFU TMEM51 (11727254_a_at) / Fold change /veh TMEM51 (11727254_a_at) / RFU PIWIL2 (11732686_x_at) / Fold change /veh PIWIL2 (11732686_x_at) / RFU ORM1 (11744905_x_at) / Fold change /veh ORM1 (11744905_x_at) / RFU CCDC152 (11743942_at) / Fold change /veh CCDC152 (11743942_at) / RFU ECM1 (11717891_a_at) / Fold change /veh ECM1 (11717891_a_at) / RFU IL23R (11748794_a_at) / Fold change /veh IL23R (11748794_a_at) / RFU TNFAIP8L3 (11732012_x_at) / Fold change /veh TNFAIP8L3 (11732012_x_at) / RFU MBOAT4 (11741988_at) / Fold change /veh MBOAT4 (11741988_at) / RFU 11764193_at / Fold change /veh 11764193_at / RFU TMEM53 (11763286_at) / Fold change /veh TMEM53 (11763286_at) / RFU MAGEB2 (11727129_at) / Fold change /veh MAGEB2 (11727129_at) / RFU TMEM200A (11744735_a_at) / Fold change /veh TMEM200A (11744735_a_at) / RFU CCDC152 (11751479_a_at) / Fold change /veh CCDC152 (11751479_a_at) / RFU FAM211A (11726209_a_at) / Fold change /veh FAM211A (11726209_a_at) / RFU RGS16 (11746705_a_at) / Fold change /veh RGS16 (11746705_a_at) / RFU VCAN (11755009_s_at) / Fold change /veh VCAN (11755009_s_at) / RFU RHOB (11743442_s_at) / Fold change /veh RHOB (11743442_s_at) / RFU RGS16 (11720943_a_at) / Fold change /veh RGS16 (11720943_a_at) / RFU RGS16 (11720944_at) / Fold change /veh RGS16 (11720944_at) / RFU, VPS4B / Fold change vs veh, VPS4B / RFU, CREB1 / Fold change vs veh, CREB1 / RFU, DNAJC13 / Fold change vs veh, DNAJC13 / RFU, GNAQ / Fold change vs veh, GNAQ / RFU, CDK5R1 / Fold change vs veh, CDK5R1 / RFU, ZRANB3 / Fold change vs veh, ZRANB3 / RFU, CUL4A / Fold change vs veh, CUL4A / RFU, CCNY / Fold change vs veh, CCNY / RFU, UFL1 / Fold change vs veh, UFL1 / RFU, COG3 / Fold change vs veh, COG3 / RFU, DIAPH2 / Fold change vs veh, DIAPH2 / RFU, SKA2 / Fold change vs veh, SKA2 / RFU, AFF3 / Fold change vs veh, AFF3 / RFU, LMF1 / Fold change vs veh, LMF1 / RFU, IPO11 / Fold change vs veh, IPO11 / RFU, DFFB / Fold change vs veh, DFFB / RFU, FOXP1 / Fold change vs veh, FOXP1 / RFU, CARD8 / Fold change vs veh, CARD8 / RFU, STRN3 / Fold change vs veh, STRN3 / RFU, ADK / Fold change vs veh, ADK / RFU, RASSF2 / Fold change vs veh, RASSF2 / RFU, WIPF1 / Fold change vs veh, WIPF1 / RFU, LARP1B / Fold change vs veh, LARP1B / RFU, RASA1 / Fold change vs veh, RASA1 / RFU, RB1 / Fold change vs veh, RB1 / RFU, PPFIA1 / Fold change vs veh, PPFIA1 / RFU, MAT2A / Fold change vs veh, MAT2A / RFU, CCT5 / Fold change vs veh, CCT5 / RFU, WDR92 / Fold change vs veh, WDR92 / RFU, CUX1 / Fold change vs veh, CUX1 / RFU, TTC7A / Fold change vs veh, TTC7A / RFU, TMEM135 / Fold change vs veh, TMEM135 / RFU, DEPTOR / Fold change vs veh, DEPTOR / RFU, CPM / Fold change vs veh, CPM / RFU, DNAJB6 / Fold change vs veh, DNAJB6 / RFU, CACNA2D3 / Fold change vs veh, CACNA2D3 / RFU, DTX4 / Fold change vs veh, DTX4 / RFU, TFCP2 / Fold change vs veh, TFCP2 / RFU, GMCL1 /// GMCL1P1 / Fold change vs veh, GMCL1 /// GMCL1P1 / RFU, AEBP2 / Fold change vs veh, AEBP2 / RFU, SNHG1 /// SNORD22 /// SNORD25 /// SNORD26 /// SNORD27 /// SNORD28 /// SNORD29 /// SNORD31 / Fold change vs veh, SNHG1 /// SNORD22 /// SNORD25 /// SNORD26 /// SNORD27 /// SNORD28 /// SNORD29 /// SNORD31 / Fold change (Aza/veh), C12orf56 (ProbeSet 11735607_a_at) / Fold change (ACY-1035/veh), C12orf56 (ProbeSet 11735607_a_at) / Fold change (Aza/veh), FGFR1OP (ProbeSet 11751329_s_at) / Fold change (ACY-1035/veh), FGFR1OP (ProbeSet 11751329_s_at) / Fold change (Aza/veh), VPS36 (ProbeSet 11739960_a_at) / Fold change (ACY-1035/veh), VPS36 (ProbeSet 11739960_a_at) / RFU SYPL1 (11715823_x_at) / Fold change /veh SYPL1 (11715823_x_at) / RFU IGFBP7 (11715501_s_at) / Fold change /veh IGFBP7 (11715501_s_at) / RFU REEP3 (11722064_at) / Fold change /veh REEP3 (11722064_at) / RFU IGLL1 (11728026_x_at) / Fold change /veh IGLL1 (11728026_x_at): dose or concentration left out as unconfirmed
Conditions: MV-4-11 cells, 48 hours

With Nc1ncn([C@@H]2O[C@H](CO)[C@@H](O)[C@H]2O)c(=O)n1 [azacitidine] the “RFU EBF3 (11725865_a_at)” value was 64.76 RFU.
